Data on 1 compound can be found in patent US12269797B2, “Bifunctional linker for bisconjugation, method of synthesis, and method of use” (priority 2020, dated 2025).

This data set is described as follows: Solubility of the bifunctional linker in solvents. The class given is physicochemical.

Turning to `C#CCOC(=O)c1ccc(C=O)c(C=O)c1` [Ib, Prop-2-yn-1-yl 3,4-diformylbenzoate], the solubility result runs as follows: (in DMSO or methanol) “soluble”; (in hexanes or water) “limited solubility”.
